Laboratory results from patent US10081628B2, “Apoptosis-inducing agents for the treatment of cancer and immune and autoimmune diseases” (AbbVie Inc., priority 2013, dated 2018).
Like-named read-outs stand apart in the source and are kept apart here.

How the values were obtained:
lymphocytes = experiment: Lymphocyte reduction in C57BL/6 mice; assay type: in vivo; conditions: Mus musculus, ip
Outline: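 C57Bl/6 mice dosed intraperitoneally at 30 mg/kg daily for four days. Blood cell counts by hematology analyzer 24 hours after first and last doses; exposure (AUC) from samples at 1, 6, 10 and 24 hours after last dose.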

RS4;11 cells [1] = experiment: RS4;11 cell viability assay (CellTiter Glo); assay type: cell-based; conditions: 10% human serum, 48 hours
Outline: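 Cells seeded at 50,000 per well and exposed to compounds for 48 h at 37 C, 5% CO2 in the presence of 10% human serum. Viability read by CellTiter Glo; EC50 derived from percentage of viable cells versus untreated controls.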

GST-Bcl-2 = GST-Bcl-2 (Homo sapiens, UniProt P10415); experiment: TR-FRET Bcl-2 binding assay (F-Bak peptide probe); conditions: GST-Bcl-2 1 nM, F-Bak peptide probe 100 nM, Tb-anti-GST 1 nM; Wang's equation; '<' = below limit of detection
Chain of GST-Bcl-2 (P10415 whole entry): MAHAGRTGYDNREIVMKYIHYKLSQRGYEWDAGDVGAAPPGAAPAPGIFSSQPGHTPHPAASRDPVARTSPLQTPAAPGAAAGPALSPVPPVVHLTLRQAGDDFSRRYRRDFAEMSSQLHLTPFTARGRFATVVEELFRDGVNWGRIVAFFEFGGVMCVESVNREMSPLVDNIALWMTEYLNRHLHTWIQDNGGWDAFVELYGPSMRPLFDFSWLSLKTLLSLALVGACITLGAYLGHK
Outline: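 Competitive TR-FRET displacement of F-Bak peptide probe from GST-Bcl-2 detected with Tb-anti-GST antibody; compounds serially diluted in DMSO from 50 μM (2× starting concentration). Mixtures incubated 3 h at room temperature, read at 340 nm excitation with 520 and 495 nm emission. Ki derived by Wang's equation.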

RS4;11 cells [2] = conditions: Blood, 2008, Vol. 111, 2300-2309; cited from earlier work
[3] = 30 mg/kg intraperitoneal every day for four days, 24 hours after the last dose, read-out: Lymphocyte reduction % inh. day 4
[4] = 30 mg/kg intraperitoneal every day, 24 hours after the first dose, read-out: Lymphocyte reduction % inh. day 1

| Structure (SMILES) | inhibition at 30 mg/kg (lymphocytes; [3]) [%] | inhibition at 30 mg/kg (lymphocytes; [4]) [%] | EC50 (RS4;11 cells [1]) [nM] | Ki (GST-Bcl-2) [nM] | sensitivity of RS4;11 cells to the Bcl-2 family member inhibitor (RS4;11 cells [2]) |
| --- | --- | --- | --- | --- | --- |
| CC1(C)CCC(CN2CCN(c3ccc(C(=O)NS(=O)(=O)c4ccc(NC[C@H]5CC[C@@]6(CCCO6)CC5)c([N+](=O)[O-])c4)c(Oc4cnc5[nH]ccc5c4)c3)CC2)=C(c2ccc(Cl)cc2)C1 [Example 5, 4-(4-{[2-(4-chlorophenyl)-4,4-dimethylcyclohex-1-en-1-yl]methyl}piperazin-1-yl)-N-[(3-nitro-4-{[(5R,8R)-1-oxaspiro[4.5]dec-8-ylmethyl]amino}phenyl)sulfonyl]-2-(1H-pyrrolo[2,3-b]pyridin-5-yloxy)benzamide] | 45 | 47 | 5.2 | < 0.1 |  |
| CC1(C)CCC(CN2CCN(c3ccc(C(=O)NS(=O)(=O)c4ccc(NCC5(C#N)CCOCC5)c([N+](=O)[O-])c4)c(Oc4cnc5[nH]ccc5c4)c3)CC2)=C(c2ccc(Cl)cc2)C1 [Example 46, 4-(4-{[2-(4-chlorophenyl)-4,4-dimethylcyclohex-1-en-1-yl]methyl}piperazin-1-yl)-N-[(4-{[(4-cyanotetrahydro-2H-pyran-4-yl)methyl]amino}-3-nitrophenyl)sulfonyl]-2-(1H-pyrrolo[2,3-b]pyridin-5-yloxy)benzamide] | 35 | 46 | 6.9 | < 0.1 |  |
| CC1(C)CCC(CN2CCN(c3ccc(C(=O)NS(=O)(=O)c4ccc(NCC5(O)COC5)c([N+](=O)[O-])c4)c(Oc4cnc5[nH]ccc5c4)c3)CC2)=C(c2ccc(Cl)cc2)C1 [Example 15, 4-(4-{[2-(4-chlorophenyl)-4,4-dimethylcyclohex-1-en-1-yl]methyl}piperazin-1-yl)-N-[(4-{[(3-hydroxyoxetan-3-yl)methyl]amino}-3-nitrophenyl)sulfonyl]-2-(1H-pyrrolo[2,3-b]pyridin-5-yloxy)benzamide] | < 15 | < 15 | 9.3 | < 0.1 |  |
| CC1(C)CCC(CN2CCN(c3ccc(C(=O)NS(=O)(=O)c4ccc(NC[C@H]5COCC(C)(C)O5)c([N+](=O)[O-])c4)c(Oc4cnc5[nH]ccc5c4)c3)CC2)=C(c2ccc(Cl)cc2)C1 [Example 37, 4-(4-{[2-(4-chlorophenyl)-4,4-dimethylcyclohex-1-en-1-yl]methyl}piperazin-1-yl)-N-{[4-({[(2S)-6,6-dimethyl-1,4-dioxan-2-yl]methyl}amino)-3-nitrophenyl]sulfonyl}-2-(1H-pyrrolo[2,3-b]pyridin-5-yloxy)benzamide] | 22 | 28 | 250 | < 0.1 |  |
| CC1(C)CCC(CN2CCN(c3ccc(C(=O)NS(=O)(=O)c4ccc(NC[C@@H]5COCCO5)c([N+](=O)[O-])c4)c(Oc4cnc5[nH]ccc5c4)c3)CC2)=C(c2ccc(Cl)cc2)C1 [Example 1, 4-(4-{[2-(4-chlorophenyl)-4,4-dimethylcyclohex-1-en-1-yl]methyl}piperazin-1-yl)-N-[(4-{[(2R)-1,4-dioxan-2-ylmethyl]amino}-3-nitrophenyl)sulfonyl]-2-(1H-pyrrolo[2,3-b]pyridin-5-yloxy)benzamide] | 41 | 41 | 5.3 | < 0.1 |  |
| CC1(C)CCC(CN2CCN(c3ccc(C(=O)NS(=O)(=O)c4ccc(NCC5(O)CCOCC5)c([N+](=O)[O-])c4)c(Oc4cnc5[nH]ccc5c4)c3)CC2)=C(c2ccc(Cl)cc2)C1 [Example 6, 4-(4-{[2-(4-chlorophenyl)-4,4-dimethylcyclohex-1-en-1-yl]methyl}piperazin-1-yl)-N-[(4-{[(4-hydroxytetrahydro-2H-pyran-4-yl)methyl]amino}-3-nitrophenyl)sulfonyl]-2-(1H-pyrrolo[2,3-b]pyridin-5-yloxy)benzamide] | 24 | < 15 | 7.6 | < 0.1 |  |
| CN(C)CC[C@H](CSc1ccccc1)Nc1ccc(S(=O)(=O)NC(=O)c2ccc(N3CCN(Cc4ccccc4-c4ccc(Cl)cc4)CC3)cc2)cc1[N+](=O)[O-] [ABT-737, N-(4-(4-((4′-chloro(1,1′-biphenyl)-2-yl)methyl)piperazin-1-yl)benzoyl)-4-(((1R)-3-(dimethylamino)-1-((phenylsulfanyl)methyl)propyl)amino)-3-nitrobenzenesulfonamide] |  |  |  |  | sensitive |
| COC1(CNc2ccc(S(=O)(=O)NC(=O)c3ccc(N4CCN(CC5=C(c6ccc(Cl)cc6)CC(C)(C)CC5)CC4)cc3Oc3cnc4[nH]ccc4c3)cc2[N+](=O)[O-])CCOCC1 [Example 27, 4-(4-{[2-(4-chlorophenyl)-4,4-dimethylcyclohex-1-en-1-yl]methyl}piperazin-1-yl)-N-[(4-{[(4-methoxytetrahydro-2H-pyran-4-yl)methyl]amino}-3-nitrophenyl)sulfonyl]-2-(1H-pyrrolo[2,3-b]pyridin-5-yloxy)benzamide] | 21 | 23 | 97 | < 0.1 |  |
| C[C@@H]1C[C@H](CNc2ccc(S(=O)(=O)NC(=O)c3ccc(N4CCN(CC5=C(c6ccc(Cl)cc6)CC(C)(C)CC5)CC4)cc3Oc3cnc4[nH]ccc4c3)cc2[N+](=O)[O-])C[C@H](C)O1 [Example 31, 4-(4-{[2-(4-chlorophenyl)-4,4-dimethylcyclohex-1-en-1-yl]methyl}piperazin-1-yl)-N-{[4-({[(2R,4R,6S)-2,6-dimethyltetrahydro-2H-pyran-4-yl]methyl}amino)-3-nitrophenyl]sulfonyl}-2-(1H-pyrrolo[2,3-b]pyridin-5-yloxy)benzamide] | 55 | 53 | 16 | < 0.1 |  |
| CC1(C)CCC(CN2CCN(c3ccc(C(=O)NS(=O)(=O)c4ccc(NC[C@@H]5CCOC5)c([N+](=O)[O-])c4)c(Oc4cnc5[nH]ccc5c4)c3)CC2)=C(c2ccc(Cl)cc2)C1 [Example 36, 4-(4-{[2-(4-chlorophenyl)-4,4-dimethylcyclohex-1-en-1-yl]methyl}piperazin-1-yl)-N-[(3-nitro-4-{[(3 S)-tetrahydrofuran-3-ylmethyl]amino}phenyl)sulfonyl]-2-(1H-pyrrolo[2,3-b]pyridin-5-yloxy)benzamide] | 42 | 47 | 32 | < 0.1 |  |
